# Measured values published in patent US10952433B2, “Solutions for enhancing the effectiveness of insecticides and fungicides on living plants and related methods” (priority 2015, dated 2021).
# Like-named read-outs stand apart in the source and are kept apart here.
# Experiments:
# [1] = system: lepidopteran larvae: cabbage loopers (Trichoplusia ni) and beet armyworms (Spodoptera exigua); assay type: in vivo; details: leaf discs
# In short: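 Romaine lettuce leaf discs (⅝ inch) dipped about one second in treatment solution and infested with four cabbage loopers and four beet armyworms (3rd-4th instar) per container. Held dark at 15 °C, 80% RH; percent disc-area damage scored visually in 5% increments at 24, 48 and 72 h.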
# [2] = system: lepidopteran larvae: cabbage loopers (Trichoplusia ni) and beet armyworms (Spodoptera exigua); assay type: in vivo; details: plants
# In short: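 Romaine lettuce plants 2-3 inches tall were sprayed with 10 mL of insecticide (ppm) with buffer, amine oxide or buffered amine oxide at 200:1, then infested with 15 T. ni and 15 S. exigua larvae (5th-6th instar) per container. Leaf surface damage scored visually in 5% increments after 24 h.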
# [3] = insecticide + CO3 buffer 200:1, no amine oxide, PPM: Chlorantranilopril 60, Acephate 70, Methoxyfenozide 100, Spinosad 30, Permethrin 10, Indoxacarb 50
# [4] = insecticide + PO4 buffer 200:1, no amine oxide, PPM: Chlorantranilopril 60, Acephate 70, Methoxyfenozide 100, Spinosad 30, Permethrin 10, Indoxacarb 50
# [5] = insecticide + amine oxide 12, no buffer, 200:1, PPM: Chlorantranilopril 60, Acephate 70, Methoxyfenozide 100, Spinosad 30, Permethrin 10, Indoxacarb 50
# [6] = insecticide + amine oxide 1218, no buffer, 200:1, PPM: Chlorantranilopril 60, Acephate 70, Methoxyfenozide 100, Spinosad 30, Permethrin 10, Indoxacarb 50
# [7] = insecticide + buffered amine oxide system CO3, 12, 200:1, PPM: Chlorantranilopril 60, Acephate 70, Methoxyfenozide 100, Spinosad 30, Permethrin 10, Indoxacarb 50
# [8] = insecticide + buffered amine oxide system CO3, 1218, 200:1, PPM: Chlorantranilopril 60, Acephate 70, Methoxyfenozide 100, Spinosad 30, Permethrin 10, Indoxacarb 50
# [9] = insecticide + buffered amine oxide system PO4, 12, 200:1, PPM: Chlorantranilopril 60, Acephate 70, Methoxyfenozide 100, Spinosad 30, Permethrin 10, Indoxacarb 50
# [10] = insecticide + buffered amine oxide system PO4, 1218, 200:1, PPM: Chlorantranilopril 60, Acephate 70, Methoxyfenozide 100, Spinosad 30, Permethrin 10, Indoxacarb 50
# [11] = insecticide alone, highest, PPM: Chlorantranilopril 120, Acephate 140, Methoxyfenozide 200, Spinosad 60, Permethrin 20, Indoxacarb 100
# [12] = insecticide alone, increased, PPM: Chlorantranilopril 90, Acephate 105, Methoxyfenozide 150, Spinosad 45, Permethrin 15, Indoxacarb 75
# [13] = insecticide alone, PPM: Chlorantranilopril 60, Acephate 70, Methoxyfenozide 100, Spinosad 30, Permethrin 10, Indoxacarb 50
substance,measurement,setting,value
Spinosad,Percent Lepidopteran Damage to Romaine Lettuce 24 hr,[1]; [3],25.5%
same,Percent Lepidopteran Damage to Romaine Lettuce 24 hr,[1]; [4],20.0%
same,Percent Lepidopteran Damage to Romaine Lettuce 24 hr,[1]; [5],30.5%
same,Percent Lepidopteran Damage to Romaine Lettuce 24 hr,[1]; [6],15.0%
same,Percent Lepidopteran Damage to Romaine Lettuce 24 hr,[1]; [7],14.0%
same,Percent Lepidopteran Damage to Romaine Lettuce 24 hr,[1]; [8],10.5%
same,Percent Lepidopteran Damage to Romaine Lettuce 24 hr,[1]; [9],6.5%
same,Percent Lepidopteran Damage to Romaine Lettuce 24 hr,[1]; [10],13.0%
same,Percent Lepidopteran Damage to Romaine Lettuce 24 hr,[1]; [11],24.5%
same,Percent Lepidopteran Damage to Romaine Lettuce 24 hr,[1]; [12],12.0%
same,Percent Lepidopteran Damage to Romaine Lettuce 24 hr,[1]; [13],19.0%
same,Percent Lepidopteran Damage to Romaine Lettuce 48 hr,[1]; [3],28.0%
same,Percent Lepidopteran Damage to Romaine Lettuce 48 hr,[1]; [4],28.5%
same,Percent Lepidopteran Damage to Romaine Lettuce 48 hr,[1]; [5],35.5%
same,Percent Lepidopteran Damage to Romaine Lettuce 48 hr,[1]; [6],21.0%
same,Percent Lepidopteran Damage to Romaine Lettuce 48 hr,[1]; [7],38.0%
same,Percent Lepidopteran Damage to Romaine Lettuce 48 hr,[1]; [8],29.5%
same,Percent Lepidopteran Damage to Romaine Lettuce 48 hr,[1]; [9],18.5%
same,Percent Lepidopteran Damage to Romaine Lettuce 48 hr,[1]; [10],22.0%
same,Percent Lepidopteran Damage to Romaine Lettuce 48 hr,[1]; [11],34.5%
same,Percent Lepidopteran Damage to Romaine Lettuce 48 hr,[1]; [12],23.5%
same,Percent Lepidopteran Damage to Romaine Lettuce 48 hr,[1]; [13],26.5%
same,Percent Lepidopteran Damage to Romaine Lettuce 72 hr,[1]; [3],29.0%
same,Percent Lepidopteran Damage to Romaine Lettuce 72 hr,[1]; [4],33.0%
same,Percent Lepidopteran Damage to Romaine Lettuce 72 hr,[1]; [5],36.0%
same,Percent Lepidopteran Damage to Romaine Lettuce 72 hr,[1]; [6],28.0%
same,Percent Lepidopteran Damage to Romaine Lettuce 72 hr,[1]; [7],49.5%
same,Percent Lepidopteran Damage to Romaine Lettuce 72 hr,[1]; [8],35.5%
same,Percent Lepidopteran Damage to Romaine Lettuce 72 hr,[1]; [9],24.0%
same,Percent Lepidopteran Damage to Romaine Lettuce 72 hr,[1]; [10],29.5%
same,Percent Lepidopteran Damage to Romaine Lettuce 72 hr,[1]; [11],36.5%
same,Percent Lepidopteran Damage to Romaine Lettuce 72 hr,[1]; [12],36.0%
same,Percent Lepidopteran Damage to Romaine Lettuce 72 hr,[1]; [13],59.0%
same,Percent Lepidopteran Damage to Romaine Lettuce 24 hr,[2]; [3],17.0%
same,Percent Lepidopteran Damage to Romaine Lettuce 24 hr,[2]; [4],20.5%
same,Percent Lepidopteran Damage to Romaine Lettuce 24 hr,[2]; [5],24.5%
same,Percent Lepidopteran Damage to Romaine Lettuce 24 hr,[2]; [6],22.5%
same,Percent Lepidopteran Damage to Romaine Lettuce 24 hr,[2]; [7],12.5%
same,Percent Lepidopteran Damage to Romaine Lettuce 24 hr,[2]; [8],9.5%
same,Percent Lepidopteran Damage to Romaine Lettuce 24 hr,[2]; [9],10.0%
same,Percent Lepidopteran Damage to Romaine Lettuce 24 hr,[2]; [10],6.5%
same,Percent Lepidopteran Damage to Romaine Lettuce 24 hr,[2]; [11],19.0%
same,Percent Lepidopteran Damage to Romaine Lettuce 24 hr,[2]; [12],17.0%
same,Percent Lepidopteran Damage to Romaine Lettuce 24 hr,[2]; [13],28.5%
